Measured values from PubChem BioAssay (NCI).
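How tested: cells in 96-well plates exposed to compound for 48 hours at five concentrations. At the GI50, growth is halved. At the TGI there is no net growth.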

Key:
Test in all cases: growth of human tumour cells (NCI), 48 h
[1] = system: NCI/ADR-RES ovarian
[2] = system: SNB-75 CNS
[3] = system: SK-MEL-2 melanoma
[4] = system: PC-3 prostate
[5] = system: KM12 colon
[6] = system: ACHN renal
[7] = system: CAKI-1 renal
[8] = system: T-47D breast
[9] = system: SK-MEL-5 melanoma
[10] = system: A549 NSCLC

Structure (SMILES)	TGI [1] [µM]	TGI [2] [µM]	TGI [3] [µM]	TGI [4] [µM]	TGI [5] [µM]	TGI [6] [µM]	TGI [7] [µM]	TGI [8] [µM]	TGI [9] [µM]	TGI [10] [µM]	GI50 [2] [nM]
O=C1c2cccnc2S(=O)(=O)N1c1ccc([N+](=O)[O-])cc1	> 100	> 100	> 100	> 100	> 100	> 100	> 100	> 100	> 100	> 100	–
C=C1CC(COc2ccc3c(C)c(C)c(=O)oc3c2C)(c2ccccc2)OC1=O (stereo unspecified)	8.24	10.4	3.91	3.84	9.35	7.51	3.33	4.96	3.23	26.7	–
O=c1ccn(-c2ccccn2)c(=O)n1-c1ccccn1	> 100	> 100	> 100	> 100	> 100	> 100	> 100	> 100	> 100	> 100	–
O=[N+]([O-])/C(Cl)=C(/C(Cl)=C(Cl)Cl)N1CCCCC1	19.1	56	48	43.8	27.6	30.7	24.9	34	20.2	28.5	–
O=C(OC12CC3CC(CC(C3)C1)C2)c1ccc(NCc2cc(O)ccc2O)cc1	2.76	2.68	3.57	3.37	5.19	2.35	0.825	1.04	3.74	16.5	–
CCCCCCCCCCCCOCCOCCOCCOCCOCCOCC(=O)NC(Cc1ccccc1)C(=O)Oc1ccc([N+](=O)[O-])cc1 (stereo unspecified)	> 100	> 100	47.9	> 100	> 100	> 100	> 100	> 100	> 100	> 100	–
O=CN1CCN(C(=O)c2ccco2)C1=S	75.3	34.8	40.6	23	20.1	24	18.5	19.3	29.1	26.9	–
C[N+]1(CCN=C=NC2CCCCC2)CCOCC1	> 100	> 100	> 100	> 100	> 100	> 100	> 100	> 100	> 100	> 100	–
CC(=O)C1(O)CCC2(O)C3(O)CC=C4CC(O)CCC4(C)C3CC(OC(=O)c3ccc(O)cc3)C12C (stereo unspecified)	> 100	> 100	> 100	> 100	> 100	> 100	> 100	> 100	> 100	> 100	–
CCOc1ccc(N=Nc2ccc3cc(/C(C)=N/NC(=O)/C(C#N)=C\c4ccc(N(CCC#N)CCC#N)cc4)c(=O)oc3c2)cc1	> 10	> 10	> 10	> 10	> 10	> 10	> 10	> 10	> 10	> 10	–
CCC(=O)Nc1ccc(NS(=O)(=O)c2ccc(Cl)cc2)cc1	> 100	> 100	> 100	> 100	> 100	> 100	> 100	> 100	> 100	> 100	–
COc1cc2c3c(cc(Cl)nc3c1OC)C(=O)C(=O)N2	53.1	29.4	27.6	27.6	30.3	27.9	28.6	> 100	32.4	38.6	–
CC1CCc2sc3nc4n(c(=O)c3c2C1)CC(C)S4 (stereo unspecified)	> 100	62.4	41.1	62.9	> 100	62.2	> 100	> 100	34.4	70.5	–
N#C/C(=C\c1cccc(Br)c1)c1nc2ccccc2c(=O)[nH]1	> 100	76	> 100	> 100	> 100	> 100	> 100	> 100	> 100	> 100	–
COCC#C[C@@]1(O)CCCCC1CC(OC)OC (stereo partly specified)	> 100	> 100	> 100	> 100	> 100	> 100	> 100	> 100	> 100	> 100	–
C=C1C[C@@H]2CC[C@@]34C[C@H]5O[C@H]6[C@@H](O3)[C@H]3O[C@H](CC[C@@H]3O[C@H]6[C@H]5O4)CC(=O)C[C@@H]3[C@@H](OC)[C@@H](C[C@H](O)CN)O[C@H]3C[C@H]3O[C@@H](CC[C@@H]1O2)C[C@@H](C)C3=C	> 1	> 1	> 0.167	> 0.12	0.0104	> 1	0.366	> 1	0.043	> 1	0.46
O=C(/C=C\Nc1ccccc1O)C(F)(F)F	> 100	> 100	> 100	> 100	> 100	> 100	> 100	> 100	53.5	> 100	–
